The source of these data is patent US11299496B2, “Ligands for alpha-7 nicotinic acetylcholine receptors and methods of treating neurological and inflammatory conditions” (Northeastern University, priority 2014, dated 2022).

Each structure is given as a SMILES string.

In this test the target is T1, human alpha-7 nAChR (Homo sapiens, UniProt P36544).
T1 construct: expressed in transfected cells; host or cells: Xenopus laevis oocytes (cRNA injection)
Description: Two-electrode voltage clamp of alpha-7 nAChR expressed in Xenopus oocytes (net charge). The test is classed as cell-based. As to conditions: area under the curve of current vs. time; for Charge Alone: compound alone acting as an allosteric agonist; for Charge +C: compound together with choline or ACh, includes PAM and ago-PAM activity. The protocol:
The human alpha-7 nAChR receptor clone was obtained from Dr. Jon Lindstrom {University of Pennsylvania, Philadelphia, Pa.), aid the RIC-3 clone from Dr. Millet Treinin (Hebrew University, Jerusalem, Israel) for the purpose of co-injection with a7 to improve the level and speed of receptor expression (Halevi et al., 2003). After linearization and purification of cloned cDNA's, RNA, transcripts were prepared rising the appropriate mMessage mMachine kit tiom Ambion (Austin, Tex.).
Expression in X, laeivis Oocytes
Oocytes were obtained from mature (>9 cm) female Xenopus laeivis African frogs (Nasco, Ft. Atkinson, Wis.). Frogs were anesthetized in 0.7 g/L solution of ethyl 3-aminobenzoate methanesulfonate buffered with sodium bicarbonate, and oocytes were surgically removed through an abdominal incision. Harvested oocytes were treated with 1.25 mg/ml collagenase (Worthington Biochemicals, Freehold, N.J.) in calcium-free Barth's solution (88 mM NaCl, 1 mM KCl, 2.38 mM NaHCO3, 0.82 mM MgSO4, 15 mM HEPES, 12 mg/L tetracycline, pH 7.6) for 3-4 hours to remove the follicular layer. Stage-5 oocytes were isolated and injected with 50 nL (5-20 ng) of human alpha-7 and RIC-3 cRNA. Suitable levels of receptor expression were typically achieved 2-6 days after injection of cRNA. For experiments involving the PAM 4BP-TQS/GAT-107, where standard levels of expression result in ion currents too large to be recorded in voltage clamp, experiments were typically conducted 1-3 days after RNA injection.
Two-electrode voltage clamp experiments were conducted using OpusXpress6000A (Molecular Devices, Sunnyvale, Calif.), an integrated system that provides automated impalement and voltage clamp of up to eight oocytes in parallel. Both the current and voltage electrodes were filled with 3 M KCl, and oocytes were clamped at a holding potential of −60 mV. Data were collected at 50 Hz and filtered at 20 Hz. The oocytes were bath-perfused with Ringer's solution (115 mM NaCl, 10 mM HEPES, 2.5 mM KCl, 1.8 mM CaCl2, pH 7.3), and agonist solutions were delivered from a 96-well drug plate using disposable tips. Flow rates were set at 2 mL/min, with each drug or control solution delivered in 12 s durations, followed˜by 181 s washouts with Ringer's unless noted otherwise.
Experimental Protocols and Data Analysis
Responses of human alpha-7 receptors to agonists were measured as both peek current and net charge measured over a 120 s period beginning with the compound application (Papke and Papke, 2002). […] In experiments involving positive allosteric modulators (PAMs), the fast desensitization of alpha-7 was eliminated, allowing peak currents to be used as a valid measurement of the receptor-mediated responses (Wang et al., 2012; Williams et al., 2011).
Oocytes received two control ACh applications prior to receiving any drug in order to establish a steady reference response, and they received one or more control ACh applications at the end of all experiments. For experiments involving drug incubation through bath applications, all responses were normalized to the average of two ACh control responses taken immediately prior to the switch of bath solution, for each cell individually. These normalization procedures had the effect of compensating for differing levels of receptor expression among the multiple oocytes used in each experiment. Each experiment was conducted on at least four oocytes, with mean values and standard errors (S.E.M.) calculated from their normalized responses. […]
For orientation: In two-electrode clamp one electrode senses voltage and the other passes current.

T1 sequence (P36544 23-502): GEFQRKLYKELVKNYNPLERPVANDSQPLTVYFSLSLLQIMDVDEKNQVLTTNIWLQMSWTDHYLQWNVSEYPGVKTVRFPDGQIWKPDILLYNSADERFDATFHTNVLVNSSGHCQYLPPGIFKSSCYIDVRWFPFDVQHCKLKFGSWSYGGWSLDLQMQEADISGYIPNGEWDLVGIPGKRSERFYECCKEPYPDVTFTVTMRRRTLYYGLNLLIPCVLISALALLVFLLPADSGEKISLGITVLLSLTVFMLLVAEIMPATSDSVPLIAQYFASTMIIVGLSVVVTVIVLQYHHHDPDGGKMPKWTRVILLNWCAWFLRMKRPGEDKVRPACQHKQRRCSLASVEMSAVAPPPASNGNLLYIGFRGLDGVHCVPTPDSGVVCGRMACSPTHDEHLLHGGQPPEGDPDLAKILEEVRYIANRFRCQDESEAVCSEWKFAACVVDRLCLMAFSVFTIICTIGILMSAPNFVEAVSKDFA

As to `NS(=O)(=O)c1ccc2c(c1)[C@H]1C=CC[C@H]1CN2` (stereo in doubt) [Compound 33, 3a,4,5,9b-tetrahydro-3H-cyclopenta[c]quinoline-8-sulfonamide], the “Charge Alone” value is “Inactive” and the “Charge +C” value is “Inactive”.

As to `NS(=O)(=O)c1ccc2c(c1)[C@H]1C=CC[C@H]1[C@@H](c1csc(Br)c1)N2` (stereo in doubt) [Compound 35, 4-(5-bromothiophen-3-yl)-3a,4,5,9b-tetrahydro-3H-cyclopenta[c]quinoline-8-sulfonamide], the “Charge +C” value is 157.

As to `NS(=O)(=O)c1ccc2c(c1)[C@H]1C=CC[C@H]1[C@@H](c1scc(Br)c1Br)N2` (stereo in doubt) [Compound 38, 4-(3,4-dibromothiophen-2-yl)-3a,4,5,9b-tetrahydro-3H-cyclopenta[c]quinoline-8-sulfonamide], the “Charge Alone” value came out at 18 and the “Charge +C” value was 1246. As for `NS(=O)(=O)c1ccc2c(c1)[C@H]1C=CC[C@H]1[C@@H](c1csc3ccccc13)N2` (stereo in doubt) [Compound 39, 4-(benzo[b]thiophen-3-yl)-3a,4,5,9b-tetrahydro-3H-cyclopenta[c]quinoline-8-sulfonamide], the “Charge Alone” value came out at 22 and the “Charge +C” value stood at 145. `O=C(O)c1ccc2c(c1)[C@H]1C=CC[C@H]1[C@@H](c1ccc(Br)cc1)N2` (stereo in doubt) [Compound 40, 4-(4-bromophenyl)-3a,4,5,9b-tetrahydro-3H-cyclopenta[c]quinoline-8-carboxylic acid]: the “Charge Alone” value was “Inactive” and the “Charge +C” value was “Inactive”.

`NS(=O)(=O)c1ccc2c(c1)[C@H]1C=CC[C@H]1[C@@H](c1cc3ccccc3s1)N2` (stereo in doubt) [Compound 41, 4-(benzo[b]thiophen-2-yl)-3a,4,5,9b-tetrahydro-3H-cyclopenta[c]quinoline-8-sulfonamide]: the “Charge Alone” value came out at 3 and the “Charge +C” value was 528. On to `NS(=O)(=O)c1ccc2c(c1)[C@H]1C=CC[C@H]1[C@@H](c1c(F)c(F)c(F)c(F)c1F)N2` (stereo in doubt) [Compound 42, 4-(perfluorophenyl)-3a,4,5,9b-tetrahydro-3H-cyclopenta[c]quinoline-8-sulfonamide], for which the “Charge +C” value is reported as 47.

On to `NS(=O)(=O)c1ccc2c(c1)[C@H]1C=CC[C@H]1[C@@H](c1ccccn1)N2` (stereo in doubt) [Compound 52, 4-(pyridin-2-yl)-3a,4,5,9b-tetrahydro-3H-cyclopenta[c]quinoline-8-sulfonamide], for which the “Charge +C” value is 4. As for `NS(=O)(=O)c1ccc2c(c1)[C@H]1C=CC[C@H]1[C@@H](c1ccc(Br)c3ccccc13)N2` (stereo in doubt) [Compound 53, 4-(4-bromonaphthalen-1-yl)-3a,4,5,9b-tetrahydro-3H-cyclopenta[c]quinoline-8-sulfonamide], the “Charge +C” value came out at 76.

For the compound `CCN(CC)S(=O)(=O)c1ccc2c(c1)[C@H]1C=CC[C@H]1[C@@H](c1ccc(Br)cc1)N2` (stereo in doubt) [Compound 55, 4-(4-bromophenyl)-N,N-diethyl-3a,4,5,9b-tetrahydro-3H-cyclopenta[c]quinoline-8-sulfonamide], the “Charge Alone” value is “Inactive” and the “Charge +C” value is reported as “Inactive”. As to `CCOC(=O)Nc1ccc([C@H]2Nc3ccc(S(N)(=O)=O)cc3[C@H]3C=CC[C@H]32)cc1` (stereo in doubt) [Compound 60, ethyl(4-(8-sulfamoyl-3a,4,5,9b-tetrahydro-3H-cyclopenta[c]quinolin-4-yl)phenyl)carbamate], the “Charge +C” value turned out to be 276. Take `NS(=O)(=O)c1ccc2c(c1)[C@H]1C=CC[C@H]1[C@@H](c1ccc(NC(=O)OC3CCCCC3)cc1)N2` (stereo in doubt) [Compound 61, cyclohexyl(4-(8-sulfamoyl-3a,4,5,9b-tetrahydro-3H-cyclopenta[c]quinolin-4-yl)phenyl)carbamate]: the “Charge +C” value came to 85. For the compound `NS(=O)(=O)c1ccc2c(c1)[C@H]1C=CC[C@H]1[C@@H](c1ccc(NC(=O)OC34CC5CC(CC(C5)C3)C4)cc1)N2` (stereo in doubt) [Compound 62, adamantan-1-yl (4-(8-sulfamoyl-3a,4,5,9b-tetrahydro-3H-cyclopenta[c]quinolin-4-yl)phenyl)carbamate], the “Charge +C” value came out at 35. With `NS(=O)(=O)c1ccc2c(c1)[C@H]1C=CC[C@H]1[C@@H](c1ccc(NC(=O)OC3C4CC5CC(C4)CC3C5)cc1)N2` (stereo in doubt) [Compound 63, adamantan-2-yl (4-(8-sulfamoyl-3a,4,5,9b-tetrahydro-3H-cyclopenta[c]quinolin-4-yl)phenyl)carbamate], the “Charge Alone” value is 5 and the “Charge +C” value came to 25. For the compound `CC(C)(C)CCCc1ccc([C@H]2Nc3ccc(S(N)(=O)=O)cc3[C@H]3C=CC[C@H]32)cc1` (stereo in doubt) [Compound 66, 4-(4-(4,4-dimethylpentyl)phenyl)-3a,4,5,9b-tetrahydro-3H-cyclopenta[c]quinoline-8-sulfonamide], the “Charge Alone” value is given as 330 and the “Charge +C” value was 1240.

In the case of `CC(C)OC(=O)Nc1ccc([C@H]2Nc3ccc(S(N)(=O)=O)cc3[C@H]3C=CC[C@H]32)cc1` (stereo in doubt) [Compound 68, isopropyl (4-(8-sulfamoyl-3a,4,5,9b-tetrahydro-3H-cyclopenta[c]quinolin-4-yl)phenyl)carbamate], the “Charge Alone” value was 80 and the “Charge +C” value is listed as 156.

For `CC(C)(C)CC(=O)Oc1ccc([C@H]2Nc3ccc(S(N)(=O)=O)cc3[C@H]3C=CC[C@H]32)cc1` (stereo in doubt) [Compound 69, 4-(8-sulfamoyl-3a,4,5,9b-tetrahydro-3H-cyclopenta[c]quinolin-4-yl)phenyl 3,3-dimethylbutanoate], the “Charge Alone” value is given as 25 and the “Charge +C” value turned out to be 582. On to `CC(C)(C)COC(=O)c1ccc([C@H]2Nc3ccc(S(N)(=O)=O)cc3[C@H]3C=CC[C@H]32)cc1` (stereo in doubt) [Compound 70, neopentyl4-(8-sulfamoyl-3a,4,5,9b-tetrahydro-3H-cyclopenta[c]quinolin-4-yl)benzoate], for which the “Charge Alone” value came out at 52 and the “Charge +C” value turned out to be 487.

For the compound `NS(=O)(=O)c1ccc2c(c1)[C@H]1C=CC[C@H]1[C@@H](c1csc(Br)n1)N2` (stereo in doubt) [Compound 85, 4-(2-bromothiazol-4-yl)-3a,4,5,9b-tetrahydro-3H-cyclopenta[c]quinoline-8-sulfonamide], the “Charge Alone” value was found to be 10 and the “Charge +C” value was 166. `NS(=O)(=O)c1ccc2c(c1)[C@H]1C=CC[C@H]1[C@@H](c1ccc3sccc3c1)N2` (stereo in doubt) [Compound 96, 4-(benzo[b]thiophen-5-yl)-3a,4,5,9b-tetrahydro-3H-cyclopenta[c]quinoline-8-sulfonamide]: the “Charge Alone” value came out at 116 and the “Charge +C” value is 156. With `NS(=O)(=O)c1ccc2c(c1)[C@H]1C=CC[C@H]1[C@@H](c1ccc(Br)cn1)N2` (stereo in doubt) [Compound 97, 4-(5-bromopyridin-2-yl)-3a,4,5,9b-tetrahydro-3H-cyclopenta[c]quinoline-8-sulfonamide], the “Charge Alone” value is 7 and the “Charge +C” value is reported as 357.
